The values below come from patent US9206130B2, “Quinoline derivatives as AXL kinase inhibitors” (Max-Planck-Gesellschaft zur Förderung der Wissenschaften …, priority 2008, dated 2015).

Structures are written as SMILES. Structures can show the parent of a compound that is named as a salt.

Consider `COc1cc2c(Oc3ccc(NS(=O)(=O)c4cc(F)ccc4F)cc3F)ccnc2cc1OCCCN1CCC(C)CC1`, for which the melting point was in the range of 223 to 225 °C. In the case of `COc1cc2c(Oc3ccc(NS(=O)(=O)c4ccccc4Br)cc3F)ccnc2cc1OCCCN1CCOCC1` [Example D49, 2-Bromo-N-{3-fluoro-4-[6-methoxy-7-(3-morpholin-4-yl-propoxy)-quinolin-4-yloxy]-phenyl}-benzenesulfonamide] it was 185 to 188 °C; in that of `COc1cc(S(=O)(=O)Nc2ccc(Oc3ccnc4cc(OCCCN5CCCC(C)C5)c(OC)cc34)c(F)c2)ccc1F` (stereo not shown) [Example D38, 4-Fluoro-N-(3-fluoro-4-{6-methoxy-7-[3-(3-methyl-piperidin-1-yl)-propoxy]-quinolin-4-yloxy}-phenyl)-3-methoxy-benzenesulfonamide], 98 to 101 °C; in that of `COc1cc2c(Oc3ccc(NS(=O)(=O)c4ccccc4[N+](=O)[O-])cc3F)ccnc2cc1OCCCN1CCOCC1` [Example D46, N-{3-Fluoro-4-[6-methoxy-7-(3-morpholin-4-yl-propoxy)-quinolin-4-yloxy]-phenyl}-2-nitro-benzenesulfonamide], 166 to 168 °C. In the case of `COc1cc2nccc(Oc3ccc(NS(=O)(=O)c4cccc(F)c4)c(F)c3)c2cc1OC` it was 233 to 235 °C. As for `COc1cc2nccc(Oc3ccc(NS(=O)(=O)c4ccc(OCc5c(C)noc5C)cc4)cc3)c2cc1OC` [Example A87, N-[4-(6,7-Dimethoxy-quinolin-4-yloxy)-phenyl]-4-(3,5-dimethyl-isoxazol-4-ylmethoxy)-benzenesulfonamide], the melting point is 188 to 190 °C. The value for `COc1cc2nccc(Oc3ccc(NS(=O)(=O)c4ccccc4OC(F)(F)F)c(F)c3)c2cc1OC` was 204 to 206 °C; that for `COc1cc2nccc(Oc3ccc(NS(=O)(=O)c4cccc5cccnc45)c(F)c3)c2cc1OC` [Example A8, Quinoline-8-sulfonic acid [4-(6,7-dimethoxy-quinolin-4-yloxy)-2-fluoro-phenyl]-amide] was 255 to 257 °C. The value for `COc1cc2nccc(Oc3ccc(NS(=O)(=O)c4cccc(OC(F)(F)F)c4)c(F)c3)c2cc1OC` [Example A35, N-[4-(6,7-Dimethoxy-quinolin-4-yloxy)-2-fluoro-phenyl]-3-trifluoromethoxy-benzenesulfonamide] was 221 to 223 °C. In the case of `COc1cc2nccc(Oc3ccc(NS(=O)(=O)c4ccc(F)cc4F)c(F)c3)c2cc1OC` it was 212 to 214 °C; in that of `COc1cc2c(Oc3ccc(NS(=O)(=O)c4cc(F)ccc4F)cc3F)ccnc2cc1OCCCN1CCOCC1` [Example D41, 2,5-Difluoro-N-{3-fluoro-4-[6-methoxy-7-(3-morpholin-4-yl-propoxy)-quinolin-4-yloxy]-phenyl}-benzenesulfonamide], 192 to 195 °C; in that of `COc1cc2nccc(Oc3ccc(NS(=O)(=O)c4cc(Cl)ccc4Cl)c(F)c3)c2cc1OC`, 228 to 230 °C. Compound `COc1cc2c(Oc3ccc(NS(=O)(=O)c4ccccc4C(F)(F)F)cc3F)ccnc2cc1OCCCN` (as salt: hydrochloride) gave a melting point of 197 to 199 °C. Regarding `COc1cc2c(Oc3ccc(NS(=O)(=O)c4cccc5ccccc45)cc3F)ccnc2cc1OCCCN1CCOCC1` [Example D48, Naphthalene-1-sulfonic acid {3-fluoro-4-[6-methoxy-7-(3-morpholin-4-yl-propoxy)-quinolin-4-yloxy]-phenyl}-amide], the melting point lay in the range of 108 to 111 °C.

`COc1cc2c(Oc3ccc(NS(=O)(=O)c4ccc(Cl)cc4F)cc3F)ccnc2cc1OCCCN1CCOCC1` [Example D43, 4-Chloro-2-fluoro-N-{3-fluoro-4-[6-methoxy-7-(3-morpholin-4-yl-propoxy)-quinolin-4-yloxy]-phenyl}-benzenesulfonamide] came in with a melting point of 200 to 203 °C. In the case of `COc1cc2c(Oc3ccc(NS(=O)(=O)c4cc(F)ccc4F)cc3F)ccnc2cc1OCCN1CCOCC1` it was 169 to 173 °C; in that of `COc1cc2c(Oc3ccc(NS(=O)(=O)c4c(Cl)cccc4Cl)cc3F)ccnc2cc1OCCCN1CCOCC1` [Example D47, 2,6-Dichloro-N-{3-fluoro-4-[6-methoxy-7-(3-morpholin-4-yl-propoxy)-quinolin-4-yloxy]-phenyl}-benzenesulfonamide], 194 to 196 °C; in that of `COc1cc2c(Oc3ccc(NS(=O)(=O)c4cccc(-c5ccccc5)c4)cc3F)ccnc2cc1OCCCN` (as salt: hydrochloride) [Example D03, Biphenyl-3-sulfonic acid {4-[7-(3-amino-propoxy)-6-methoxy-quinolin-4-yloxy]-3-fluoro-phenyl}-amide hydrochloride], 198 to 202 °C. The value for `COc1cc2c(Oc3ccc(NS(=O)(=O)c4cccc(-c5ccccc5)c4)cc3F)ccnc2cc1OCCCN1CCCC(C)C1` (stereo not shown) [Example D37, Biphenyl-3-sulfonic acid (3-fluoro-4-{6-methoxy-7-[3-(3-methyl-piperidin-1-yl)-propoxy]-quinolin-4-yloxy}-phenyl)-amide] was 190 to 192 °C.

`COc1cc2nccc(Oc3ccc(NS(=O)(=O)c4cc(Cl)c(O)c(Cl)c4)c(C)c3)c2cc1OC` [Example A105, 3,5-Dichloro-N-[4-(6,7-dimethoxy-quinolin-4-yloxy)-2-methyl-phenyl]-4-hydroxy-benzenesulfonamide] gave a melting point of 255 to 259 °C. The value for `COc1cc2c(Oc3ccc(NS(=O)(=O)c4cccc(-c5ccccc5)c4)cc3F)ccnc2cc1OCCCN1CCOCC1` [Example D42, Biphenyl-3-sulfonic acid {3-fluoro-4-[6-methoxy-7-(3-morpholin-4-yl-propoxy)-quinolin-4-yloxy]-phenyl}-amide] was 210 to 212 °C; that for `COc1cc(S(=O)(=O)Nc2ccc(Oc3ccnc4cc(OCCCN5CCOCC5)c(OC)cc34)c(F)c2)ccc1F` [Example D44, 4-Fluoro-N-{3-fluoro-4-[6-methoxy-7-(3-morpholin-4-yl-propoxy)-quinolin-4-yloxy]-phenyl}-3-methoxy-benzenesulfonamide] was 90 to 93 °C; that for `COc1cc2nccc(Oc3ccc(NS(=O)(=O)c4ccccc4C(F)(F)F)cc3)c2cc1OC` was 224 to 227 °C. The value for `COc1cc2nccc(Oc3ccc(NS(=O)(=O)c4cccc(C(F)(F)F)c4)c(F)c3)c2cc1OC` was 230 to 231 °C; that for `COc1cc2c(Oc3ccc(NS(=O)(=O)c4ccccc4OC(F)(F)F)cc3F)ccnc2cc1OCCCN` (as salt: hydrochloride) [Example D15, N-{4-[7-(3-Amino-propoxy)-6-methoxy-quinolin-4-yloxy]-3-fluoro-phenyl}-2-trifluoromethoxy-benzenesulfonamide hydrochloride] was 95 to 97 °C; that for `COc1cc2nccc(Oc3ccc(NS(=O)(=O)c4cc(F)ccc4F)c(F)c3)c2cc1OC` was 232 to 234 °C. In the case of `COc1cc2nccc(Oc3ccc(NS(=O)(=O)c4ccc5c(c4)CC(=O)N5C)cc3F)c2cc1OC` [Example A125, 1-Methyl-2-oxo-2,3-dihydro-1H-indole-5-sulfonic acid [4-(6,7-dimethoxy-quinolin-4-yloxy)-3-fluoro-phenyl]-amide] it was 163 to 165 °C; in that of `COc1cc2c(Oc3ccc(NS(=O)(=O)c4ccccc4C(F)(F)F)cc3F)ccnc2cc1OCCCN1CCCC(C)C1` (stereo not shown) [Example D35, N-(3-Fluoro-4-{6-methoxy-7-[3-(3-methyl-piperidin-1-yl)-propoxy]-quinolin-4-yloxy}phenyl)-2-trifluoromethyl-benzenesulfonamide], 118 to 121 °C; in that of `COc1cc2nccc(Oc3ccc(NS(=O)(=O)c4ccccc4C(F)(F)F)c(F)c3)c2cc1OC`, 237 to 239 °C.

In turn, `COc1cc2c(Oc3ccc(NS(=O)(=O)c4ccccc4C(F)(F)F)cc3F)ccnc2cc1OCCN1CCOCC1` displayed a melting point of 178 to 180 °C. The value for `COc1cc2nccc(Oc3ccc(NS(=O)(=O)c4ccccc4C(F)(F)F)cc3C)c2cc1OC` was 209 to 211 °C; that for `COc1cc2nccc(Oc3ccc(NS(=O)(=O)c4cc(Br)cc(C(F)(F)F)c4)c(F)c3)c2cc1OC` [Example A47, 3-Bromo-N-[4-(6,7-dimethoxy-quinolin-4-yloxy)-2-fluoro-phenyl]-5-trifluoromethyl-benzenesulfonamide] was 214 to 216 °C; that for `COc1cc2nccc(Oc3ccc(NS(=O)(=O)c4ccccc4C)c(F)c3)c2cc1OC` was 218 to 220 °C. With `COc1cc2c(Oc3ccc(NS(=O)(=O)c4ccccc4OC(F)(F)F)cc3F)ccnc2cc1OCCCN1CCOCC1` [Example D40, N-{3-Fluoro-4-[6-methoxy-7-(3-morpholin-4-yl-propoxy)-quinolin-4-yloxy]-phenyl}-2-trifluoromethoxy-benzenesulfonamide], the melting point lay within 183 to 184 °C. On to `COc1cc2c(Oc3ccc(NS(=O)(=O)c4ccccc4C(F)(F)F)cc3F)ccnc2cc1OCCCN1CCOCC1` [Example D39, N-{3-Fluoro-4-[6-methoxy-7-(3-morpholin-4-yl-propoxy)-quinolin-4-yloxy]-phenyl}-2-trifluoromethyl-benzenesulfonamide], for which the melting point is 180 to 181 °C. The value for `COc1cc2nccc(Oc3ccc(NS(=O)(=O)c4c(Cl)cccc4Cl)c(F)c3)c2cc1OC` was 217 to 218 °C; that for `COc1cc2c(Oc3ccc(NS(=O)(=O)c4cc(F)ccc4F)cc3F)ccnc2cc1OCCCN1CCCC(C)C1` (stereo not shown) [Example D36, 2,5-Difluoro-N-(3-fluoro-4-{6-methoxy-7-[3-(3-methyl-piperidin-1-yl)-propoxy]-quinolin-4-yloxy}-phenyl)-benzenesulfonamide] was 103 to 107 °C; that for `COc1cc2nccc(Oc3ccc(NS(=O)(=O)c4cccc5ccccc45)cc3)c2cc1OC` [Example A104, Naphthalene-1-sulfonic acid [4-(6,7-dimethoxy-quinolin-4-yloxy)-phenyl]-amide] was 250 to 253 °C.

For `COc1cc2nccc(Oc3ccc(NS(=O)(=O)c4ccccc4)c(F)c3)c2cc1OC`, the melting point lay within 234 to 235 °C. In the case of `COc1cc2nccc(Oc3ccc(NS(=O)(=O)c4ccccc4C(F)(F)F)cc3F)c2cc1OC` it was 80 to 83 °C.
